pIC50: −log10 of the molar value.
Assays:
[1] = in vivo
[2] = system: patient-derived primary AML cells; assay: orthotopic patient-derived xenograft; assay type: in vivo, mouse; details: PDX; for leukemic disease burden: hCD45+ cells in peripheral blood or bone marrow
human cone PDE6 (PDE6C) = details: in vitro biochemical assays; relative to CB-5083
MV4-11 cells [3] = assay: cellular viability of MV4-11 AML cell line; assay type: cell-based, human
γH2AX = assay: FACS analysis of intracellular gammaH2AX in AML cells; assay type: cell-based, human
[4] = preclinical pharmacokinetics in multiple species; assay type: in vivo; details: preclinical studies in multiple species
[5] = system: poly-ubiquitinated proteins, GRP78, spliced XBP-1, ATF-4; assay type: cell-based, human
MV4-11 cells [6] = assay: combination with doxorubicin in MV4-11 cell line; assay type: cell-based, human; details: MV4-11 AML cell line
[7] = assay type: in vivo; details: mice
MLL-AF9 cells = assay: MLL-AF9 syngeneic AML mouse model; assay type: in vivo; details: for leukemic disease burden: peripheral blood / bone marrow
P-ATM (S1981) = assay: ATM phosphorylation upon etoposide DSB induction; assay type: cell-based, human; details: upon etoposide DSBs induction
[8] = system: MV4-11 and UT-7 AML cell lines; assay: Annexin V/propidium iodide staining and flow cytometry; assay type: cell-based, human; details: 0.2 μM for 8 days
[9] = system: UT-7 cells expressing VCP (A530T); assay: growth inhibition of UT-7 cells expressing NMS-873-resistant VCP; assay type: cell-based, human; details: four days
RG37-DR-GFP cells = assay: homologous recombination reporter; assay type: cell-based; details: 0.4 μM; 48 hours post-transfection with I-SceI
GC92-NHEJ-CD4 cells = assay: non-homologous end-joining reporter; assay type: cell-based; details: 0.4 μM; 48 hours post-transfection with I-SceI
[10] = system: primary patient AML blasts; assay: colony-forming assay of primary patient AML samples in methylcellulose; assay type: cell-based, human; details: leukemia cells from patients with AML
[11] = cited from earlier work
[12] = phase I trial; ref NCT02243917; cited from earlier work
MV4-11-luc cells = details: MV4-11 xenograft
[13] = system: panel of human cancer cell lines; assay: viability across a panel of human cancer cell lines; assay type: cell-based; details: 131 human cancer cell lines, 16 cancer types; three days

For Cc1cc2c(C(N)=O)cccc2n1-c1nc2c(c(NCc3ccccc3)n1)CCCN2 [CB-5339], the “times lower Cmax in rat retina compared to CB-5083” value [1] was 31 times, the survival ([2]; 90 mg/kg) was “prolonged mice survival” and the leukemic disease burden [2] was “decreased bone marrow leukemic infiltration”. The “fold less active on human cone PDE6 (PDE6C) compared to CB-5083” value (human cone PDE6 (PDE6C)) was 15 fold, the pIC50 (MV4-11 cells [3]) was 6.73 and the “effect on γH2AX accumulation” value (γH2AX; 0.2 μM) was “increased γH2AX accumulation”. For the same molecule, the “bioavailability compared to CB-5083” value [4] was “higher bioavailability”, the “clearance compared to CB-5083” value [4] was “lower clearance” and the “concentration at which ATF-4 accumulated” value ([5]; AML context) was ≥ 0.8 µM. The “concentration at which ER stress marker GRP78 accumulated” value ([5]; AML context) was ≥ 0.4 µM, the “concentration at which spliced XBP-1 accumulated” value ([5]; AML context) was ≥ 1.6 µM and the “concentration inducing polyubiquitin protein accumulation” value ([5]; AML context, dose-dependent) was ≥ 0.4 µM. For the same molecule, the interaction with doxorubicin (MV4-11 cells [6]) was “synergized with doxorubicin”, the “tolerability (weight, blood counts)” value [7] was “well tolerated” and the survival (MLL-AF9 cells) was “prolonged survival”. For the same molecule, the leukemic disease burden (MLL-AF9 cells) was “decreased circulating leukemic cells” and the “effect on ATM phosphorylation” value (P-ATM (S1981)) was “impaired ATM phosphorylation”.
With Cc1cc(OCc2nnc(SC3CCCC3)n2-c2cccnc2)ccc1-c1ccc(S(C)(=O)=O)cc1 [NMS-873] the “cell death / apoptosis” value [8] was “induced Annexin-positive cell death”, the “effect of VCP (A530T) expression on compound-induced loss of viability” value [9] was “rescued the loss of viability” and the “effect on γH2AX” value (γH2AX; MV4-11 and UT-7, 0.4 μM, 72 hours) was “increased γH2AX”. The “effect on homologous recombination (HR) DSB repair” value (RG37-DR-GFP cells) was “impairment of HR”, the “concentration at which poly-ubiquitinated proteins started to accumulate” value ([5]; AML cells) was 5 µM and the “effect on non-homologous end-joining (NHEJ)” value (GC92-NHEJ-CD4 cells) was “did not impair NHEJ”. The “colony formation of AML blasts” value [10] was “impaired the capacity of AML blasts to form colonies” and the “pharmacological and bioavailability properties” value [11] was “lacks appropriate pharmacological and bioavailability properties”.
For Cc1cc2c(C(N)=O)cccc2n1-c1nc2c(c(NCc3ccccc3)n1)COCC2 [CB-5083], the leukemic disease burden [2] is given as “substantially decreased disease burden”, the myelosuppression in patients [12] is given as “not myelosuppressive” and the “disease burden (bioluminescence)” value (MV4-11-luc cells) is given as “decreased disease burden”. For the same molecule, the survival (MV4-11-luc cells) was “prolonged mice survival”, the “tolerability (weight, blood counts)” value [7] was “no major weight loss or hematopoietic toxicity” and the “colony formation of AML blasts” value [10] was “impaired the capacity of AML blasts to form colonies”. The survival (MLL-AF9 cells) was “prolonged mice survival”, the leukemic disease burden (MLL-AF9 cells) was “decreased disease burden” and the “sensitivity of AML cell lines versus other cancer subtypes” value [13] was “more sensitive”.
